One test concerns the target T1, Recombinant maltose-binding protein-human aspartate N-acetyltransferase (MBP-ANAT) fusion enzyme (Homo sapiens, UniProt Q8N9F0).
T1 construct: His tag (C); made in house; host or cells: E. coli NiCo21(DE3)
T1 sequence (Q8N9F0 1-302): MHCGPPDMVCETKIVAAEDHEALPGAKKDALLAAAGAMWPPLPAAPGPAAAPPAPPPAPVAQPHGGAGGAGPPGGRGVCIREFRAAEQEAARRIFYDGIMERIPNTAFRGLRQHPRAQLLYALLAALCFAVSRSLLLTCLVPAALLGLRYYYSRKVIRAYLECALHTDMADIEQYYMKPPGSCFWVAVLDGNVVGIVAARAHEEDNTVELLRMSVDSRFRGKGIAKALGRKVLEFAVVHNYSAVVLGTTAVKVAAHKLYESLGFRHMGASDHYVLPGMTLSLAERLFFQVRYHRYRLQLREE
Kind of test: ANAT activity, DTNB-based assay (inhibitor screening and kinetic evaluation).
Conditions: not given
It is filed as biochemical. The text has this:
ANAT is difficult to purify. […] This can be accomplished, for example, as described in U.S. Provisional Patent Application No. 62/216,700, which is incorporated herein by reference for all purposes. […] An optimized thiol detection assay can be used to kinetically characterize this newly produced enzyme form.
Recombinant maltose-binding protein-human aspartate N-acetyltransferase (MBP-ANAT) fusion enzyme was expressed and purified as described in U.S. Provisional Patent Application No. 62/216,700. Briefly, NiCo21(DE3) competent E. coli cells (New England Biolabs, Ipswich, Mass.) were transformed with an MBP-ANAT-his construct and selected on LB plates with 30 μg/ml kanamycin. Colonies from these plates were used to inoculate starter cultures in LB media. After diluting each starter culture by 100-fold in 1 L of LB media, cell growth was continued for about 2 hours at 37° C. until A600 reached 0.6. IPTG was then added to a final concentration of 0.5 mM, and protein expression was induced at 16° C. for 20 hours. To purify MBP-ANAT, a Ni Sepharose 6 Fast Flow column (GE healthcare, Pittsburgh, Pa.) was equilibrated with Buffer A (20 mM potassium phosphate, pH 7.4, 300 mM sodium chloride, 10% glycerol, and 20 mM imidazole). Cell lysate was loaded on to the column and partially purified ANAT was then eluted with a linear gradient of Buffer B (buffer A containing 400 mM imidazole). The active fractions were pooled and loaded onto an amylose column and highly purified ANAT fusion was then obtained by elution with a 0-10 mM linear maltose gradient. ANAT activity was measured by an established DTNB-based assay using a SpectraMax 190 spectrophotometer plate reader (Molecular Devices, Calif.). A typical activity assay contained 20 mM HEPES, pH 7.4, 150 mM NaCl, 5% glycerol, 40 μM DTNB, 40 μM acetyl-CoA, and 2 mM L-aspartate in a total volume of 200 μl. Reaction was monitored at 412 nm (ε=14.15 mM^−1 cm^−1) for at least 15 minutes.
Three different compound libraries were used for initial screening of ANAT inhibitors. These small compound libraries were assembled in-house: an amino acids library contained 96 compounds, a metabolite library contained 96 compounds, and a second amino acids library contained 64 compounds. An additional constrained analogs library contained 77 compounds that were purchased from commercial sources.
With `O=C(O)C[C@H](NC(=O)OCc1ccccc1)C(=O)O` [N-[(benzyloxy)carbonyl]-L-aspartic acid], the “ANAT inhibitor potency (in words)” value was “surprisingly high potency”. Still for that read-out and setting: the value for `NC(=O)[C@@H](N)CC(=O)O` [L-aspartic acid amide] was “neither alternative substrates nor inhibitors”.

The test is the same for the next values; noted with them: read-out: inhibition constant against ANAT.
`O=C(O)CC[C@H](NC(=O)c1ccccc1)C(=O)O` [N-benzoyl-L-glutamate]: the Ki came out at 0.13 mM. Turning to `O=C(O)c1cc(-c2ccccc2F)no1` [3-(2-fluoro-phenyl)-isoxazole-5-carboxylic acid], the Ki is more than 2 mM.

`O=C(O)C[C@H](NC(=O)c1ccccc1)C(=O)O` [comparable L-aspartate derivative, sodium N-benzoyl-L-aspartate]: the Ki is more than 2 mM. Consider `O=C1CC[C@H](C(=O)O)N1` [2-D-pyroglutamic acid], for which the Ki was more than 2 mM.

As to `Cc1noc(-c2cccc(C(=O)O)c2)n1` [3-(3-methyl-1,2,4-oxadiazol-5-yl-benzoic acid], the Ki was more than 2 mM.

For the origin of these results see patent US11186541B2, “Potent inhibitors of aspartate N-acetyl-transferase for the treatment of Canavan disease” (The University of Toledo, priority 2016, dated 2021).
